Results taken from patent US20130157954A1, “METHODS FOR TREATMENT OR PROPHYLAXIS OF KIDNEY OR LIVER DYSFUNCTION” (NPS PHARMACEUTICALS, INC., priority 2010, published 2013).

Test: Example 2: liver biomarkers (albumin, gamma glutamyl transferase, total bilirubin, ALT, AST, ALP) in short bowel syndrome patients, every four weeks for 24 weeks; also sorted by >10% change from baseline
Type: in vivo, Human
Experimental: To further confirm the results of Example 1, a further study was conducted involving more individuals and additional diagnostic biomarkers. Human patients with short bowel syndrome were divided into two groups: a control group (43 total individuals) to receive placebo, and an experimental group (42 total individuals) to receive teduglutide at 0.05 mg/kg/day throughout the study. Patients were treated by subcutaneous injection of placebo or the appropriate dose of teduglutide. Known biomarkers of liver function were monitored every four weeks, for 24 weeks. The liver biomarkers tested included albumin, gamma glutamyl transferase, total bilirubin, ALT and AST and ALP. Before administration of placebo or teduglutide, diagnostic biomarker levels were tested to establish a baseline for each individual.
To determine the effect of GLP-2 on the levels of the diagnostic biomarkers, the average level of each biomarker was measured for the placebo and teduglutide treated groups for each visit. Furthermore, the average change from baseline was calculated using the established baseline values. For FIGS. 17-28, p-values were calculated using the t-test.
P values are provided, which were calculated for each distribution of biomarker changes for each week using the chi-squared test.

[1] = Endpoint (last assessment after start of treatment), 0.05 mg/kg/d, m = 42
[2] = Endpoint (last assessment after the start of treatment), 0.05 mg/kg/d

## CC[C@H](C)[C@H](NC(=O)[C@H](Cc1ccccc1)NC(=O)[C@H](CC(=O)O)NC(=O)[C@H](CCCNC(=N)N)NC(=O)[C@H](C)NC(=O)[C@H](C)NC(=O)[C@H](CC(C)C)NC(=O)[C@H](CC(N)=O)NC(=O)[C@H](CC(=O)O)NC(=O)[C@H](CC(C)C)NC(=O)[C@@H](NC(=O)[C@@H](NC(=O)[C@H](CC(N)=O)NC(=O)[C@H](CCSC)NC(=O)[C@H](CCC(=O)O)NC(=O)[C@H](CC(=O)O)NC(=O)[C@H](CO)NC(=O)[C@H](Cc1ccccc1)NC(=O)[C@H](CO)NC(=O)CNC(=O)[C@H](CC(=O)O)NC(=O)CNC(=O)[C@@H](N)Cc1c[nH]cn1)[C@@H](C)O)[C@@H](C)CC)C(=O)N[C@@H](CC(N)=O)C(=O)N[C@@H](Cc1c[nH]c2ccccc12)C(=O)N[C@@H](CC(C)C)C(=O)N[C@H](C(=O)N[C@@H](CCC(N)=O)C(=O)N[C@H](C(=O)N[C@@H](CCCCN)C(=O)N[C@H](C(=O)N[C@H](C(=O)N[C@@H](CC(=O)O)C(=O)O)[C@@H](C)O)[C@@H](C)CC)[C@@H](C)O)[C@@H](C)CC [teduglutide]
0.05 mg/kg/day, Table 3, FIGS. 17-20 and 23-28
  level of diagnostic biomarkers elevated in liver dysfunction vs placebo cohort: lower level, on average
0.05 mg/kg/day, Table 4
  likelihood of >10% decrease in liver biomarkers vs placebo: more likely to experience a >10% decrease
  likelihood of >10% increase in liver biomarkers vs placebo: less likely to experience a >10% increase
0.05 mg/kg/day, as treatment progressed, FIGS. 21 and 22
  measured level of albumin relative to placebo cohort: became elevated
[1]
  ALT: subjects Within 10% of Baseline: 12 (28.6%) n (%)
  ALT: subjects with >10% decrease from Baseline: 25 (59.5%) n (%)
  ALT: subjects with >10% increase from Baseline: 5 (11.9%) n (%)
  AST: subjects Within 10% of Baseline: 11 (26.2%) n (%)
  AST: subjects with >10% decrease from Baseline: 25 (59.5%) n (%)
  AST: subjects with >10% increase from Baseline: 6 (14.3%) n (%)
  Albumin: subjects Within 10% of Baseline: 40 (95.2%) n (%)
  Albumin: subjects with >10% decrease from Baseline: 2 (4.8%) n (%)
  Albumin: subjects with >10% increase from Baseline: 0 n (%)
  Alkaline Phosphatase: subjects Within 10% of Baseline: 12 (28.6%) n (%)
  Alkaline Phosphatase: subjects with >10% decrease from Baseline: 24 (57.1%) n (%)
  Alkaline Phosphatase: subjects with >10% increase from Baseline: 6 (14.3%) n (%)
  Bilirubin: subjects Within 10% of Baseline: 8 (19.0%) n (%)
  Bilirubin: subjects with >10% decrease from Baseline: 27 (64.3%) n (%)
  Bilirubin: subjects with >10% increase from Baseline: 7 (16.7%) n (%)
[2]
  ALKALINE PHOSPHATASE Change from Baseline Median: −22 U/L
  ALT Change from Baseline, Max: 21 U/L
  ALT Change from Baseline, Median: −4 U/L
  ALT Change from Baseline, Min: −60 U/L
  ALT Observed Value, Max: 149 U/L
  ALT Observed Value, Mean: 31.0 U/L
  ALT Observed Value, Min: 7 U/L
  AST Change from Baseline, Max: 14 U/L
  AST Change from Baseline, Mean: −5.4 U/L
  AST Change from Baseline, Median: −3 U/L
  AST Change from Baseline, Min: −47 U/L
  AST Observed Value, Max: 77 U/L
  AST Observed Value, Mean: 27.0 U/L
  AST Observed Value, Median: 24 U/L
  AST Observed Value, Min: 11 U/L
  Albumin Change from Baseline, Max: 3 g/L
  Albumin Change from Baseline, Mean: -0.5 g/L
  Albumin Change from Baseline, Median: 0 g/L
  Albumin Change from Baseline, Min: -8 g/L
  Albumin Observed Value, Max: 48 g/L
  Albumin Observed Value, Median: 42 g/L
  Albumin Observed Value, Min: 33 g/L
  Alkaline Phosphatase Change from Baseline, Max: 33 U/L
  Alkaline Phosphatase Change from Baseline, Min: −122 U/L
  Alkaline Phosphatase Observed Value, Max: 328 U/L
  Alkaline Phosphatase Observed Value, Min: 49 U/L
  Bilirubin Change from Baseline, Max: 3.4 µmol/L
  Bilirubin Change from Baseline, Min: -26.1 µmol/L
  Bilirubin Observed Value, Max: 31.3 µmol/L
  Bilirubin Observed Value, Min: 2.5 µmol/L
  Gamma Glutamyl Transferase Change from Baseline, Max: 46 U/L
  Gamma Glutamyl Transferase Change from Baseline, Median: −6 U/L
  Gamma Glutamyl Transferase Change from Baseline, Min: −144 U/L
  Gamma Glutamyl Transferase Observed Value, Max: 228 U/L
  Gamma Glutamyl Transferase Observed Value, Median: 42 U/L
  Gamma Glutamyl Transferase Observed Value, Min: 7 U/L
Week 2, 0.05 mg/kg/d
  ALKALINE PHOSPHATASE Change from Baseline Median: −8 U/L
  ALT Change from Baseline, Max: 48 U/L
  ALT Change from Baseline, Mean: −8.9 U/L
  ALT Change from Baseline, Median: −5.5 U/L
  ALT Change from Baseline, Min: −58 U/L
  ALT Observed Value, Max: 142 U/L
  ALT Observed Value, Min: 9 U/L
  AST Change from Baseline, Max: 22 U/L
  AST Change from Baseline, Mean: −3.6 U/L
  AST Change from Baseline, Median: −3 U/L
  AST Change from Baseline, Min: −21 U/L
  AST Observed Value, Max: 78 U/L
  AST Observed Value, Mean: 29.0 U/L
  AST Observed Value, Min: 11 U/L
  Albumin Change from Baseline, Max: 3 g/L
  Albumin Change from Baseline, Mean: -0.9 g/L
  Albumin Change from Baseline, Median: -1 g/L
  Albumin Change from Baseline, Min: -5 g/L
  Albumin Observed Value, Max: 47 g/L
  Albumin Observed Value, Median: 42 g/L
  Albumin Observed Value, Min: 35 g/L
  Alkaline Phosphatase Change from Baseline, Max: 27 U/L
  Alkaline Phosphatase Change from Baseline, Min: −76 U/L
  Alkaline Phosphatase Observed Value, Max: 298 U/L
  Alkaline Phosphatase Observed Value, Min: 53 U/L
  Bilirubin Change from Baseline, Max: 8.6 µmol/L
  Bilirubin Change from Baseline, Min: -18.2 µmol/L
  Bilirubin Observed Value, Max: 57.4 µmol/L
  Bilirubin Observed Value, Min: 2.4 µmol/L
  Gamma Glutamyl Transferase Change from Baseline, Max: 117 U/L
  Gamma Glutamyl Transferase Change from Baseline, Mean: 7.4 U/L
  Gamma Glutamyl Transferase Change from Baseline, Median: 2.5 U/L
  Gamma Glutamyl Transferase Change from Baseline, Min: −48 U/L
  Gamma Glutamyl Transferase Observed Value, Max: 279 U/L
  Gamma Glutamyl Transferase Observed Value, Min: 11 U/L
Week 2, 0.05 mg/kg/d, m = 40
  ALT: subjects Within 10% of Baseline: 10 (25.0%) n (%)
  ALT: subjects with >10% decrease from Baseline: 23 (57.5%) n (%)
  ALT: subjects with >10% increase from Baseline: 7 (17.5%) n (%)
  AST: subjects Within 10% of Baseline: 15 (37.5%) n (%)
  AST: subjects with >10% decrease from Baseline: 20 (50.0%) n (%)
  AST: subjects with >10% increase from Baseline: 5 (12.5%) n (%)
  Albumin: subjects Within 10% of Baseline: 37 (92.5%) n (%)
  Albumin: subjects with >10% decrease from Baseline: 3 (7.5%) n (%)
  Albumin: subjects with >10% increase from Baseline: 0 n (%)
  Alkaline Phosphatase: subjects Within 10% of Baseline: 19 (47.5%) n (%)
  Alkaline Phosphatase: subjects with >10% decrease from Baseline: 15 (37.5%) n (%)
  Alkaline Phosphatase: subjects with >10% increase from Baseline: 6 (15.0%) n (%)
